Our source for the viscosity, mass density and speed of sound values is the NIST ThermoML archive (doi:10.1016/j.jct.2009.02.002).

± gives the expanded uncertainty stated by the source.

As usually defined, the viscosity is the internal friction of a fluid under shear. In general, mass density refers to the mass of a sample divided by its volume. The term speed of sound denotes the propagation velocity of pressure waves in the medium.

The conditions of this series: 101.33 kPa, Liquid; for viscosity: Capillary tube (Ostwald / Ubbelohde) method; for mass density: Vibrating tube method.
The mark [1] stands for this setting: 298.15 K, automatically measured using an Anton Paar DSA 5000 instrument.
Setting [2] is: 303.15 K, automatically measured using an Anton Paar DSA 5000 instrument.
The mark [3] stands for this setting: 308.15 K, automatically measured using an Anton Paar DSA 5000 instrument.

Take `CC(C)CO` [2-methyl-1-propanol]: the viscosity is 3.404 ± 0.021 mPa·s (298.15 K), 2.695 ± 0.017 mPa·s (303.15 K) and 2.188 ± 0.014 mPa·s (308.15 K). Also, the mass density turned out to be 798.52 ± 0.14 kg/m3 (298.15 K), 794.6 ± 0.14 kg/m3 (303.15 K) and 790.63 ± 0.15 kg/m3 (308.15 K). Moreover, the speed of sound under setting [1] was 1189.6 ± 0.5 m/s, the speed of sound under setting [2] was 1172.9 ± 0.5 m/s and the speed of sound under setting [3] worked out at 1156.2 ± 0.5 m/s.
Turning to `CC(C)CCCC(C)CCCC(C)CCCCC(C)CCCC(C)CCCC(C)C` (configuration not stated) [2,6,10,15,19,23-hexamethyltetracosane], the viscosity (298.15 K) was determined as 28.26 ± 0.14 mPa·s, the viscosity (303.15 K) is reported as 22.09 ± 0.11 mPa·s and the viscosity (308.15 K) is given as 17.77 ± 0.09 mPa·s. For the same molecule, the mass density runs as follows: (298.15 K) 805.122 ± 0.14 kg/m3; (303.15 K) 801.912 ± 0.14 kg/m3; (308.15 K) 798.709 ± 0.14 kg/m3. For the same molecule, the speed of sound runs as follows: under setting [1], 1381.9 ± 0.5 m/s; under setting [2], 1364.1 ± 0.5 m/s; under setting [3], 1346.5 ± 0.5 m/s.
Regarding `CCCCCCCCCCCCCCCC` [hexadecane], the viscosity (298.15 K) is recorded as 3.041 ± 0.019 mPa·s, the viscosity (303.15 K) turned out to be 2.706 ± 0.017 mPa·s and the viscosity (308.15 K) came out at 2.409 ± 0.015 mPa·s. The speed of sound runs as follows: (298.15 K, Pulse-echo method) 1338.6 ± 0.8 m/s; (303.15 K, Pulse-echo method) 1320 ± 0.8 m/s; (308.15 K, Pulse-echo method) 1301.7 ± 0.8 m/s. Further, the mass density is, setting by setting: (298.15 K) 770.456 ± 0.15 kg/m3; (303.15 K) 766.981 ± 0.15 kg/m3; (308.15 K) 763.52 ± 0.15 kg/m3.
